According to the supplement of paper PMC10307832:

Tests used:
Experiment in all cases: relative viability (nuclei count vs DMSO), 5 days (fraction); higher = more cells survive
NCI-H520 = test system: NCI-H520
Summary of the method: (§1)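 Dosing by pin tool came one day after lung cancer cell lines were seeded in 1536-well plates, using either one drug or a fixed anchor-drug dose plus five library-drug doses (not always all listed) in √10 steps. After 5 days, nuclei were counted on 4× images. Relative viability is treated-well nuclei count divided by vehicle-well nuclei count, and values are medians of duplicate plates.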

NCI-H3122 = test system: NCI-H3122
Summary of the method: as §1

NCI-H838 = test system: NCI-H838
Summary of the method: as §1

NCI-H1944 = test system: NCI-H1944
Summary of the method: as §1

SW 900 = test system: SW 900
Summary of the method: as §1

NCI-H1666 = test system: NCI-H1666
Summary of the method: as §1

NCI-H322M = test system: NCI-H322M
Summary of the method: as §1

NCI-H441 = test system: NCI-H441
Summary of the method: as §1

NCI-H1355 = test system: NCI-H1355
Summary of the method: as §1

NCI-H2085 = test system: NCI-H2085
Summary of the method: as §1

SW 1573 = test system: SW 1573
Summary of the method: as §1

NCI-H460 = test system: NCI-H460
Summary of the method: as §1

NCI-H2347 = test system: NCI-H2347
Summary of the method: as §1

EKVX = test system: EKVX
Summary of the method: as §1

NCI-H1734 = test system: NCI-H1734
Summary of the method: as §1

LK-2 = test system: LK-2
Summary of the method: as §1

NCI-H1755 = test system: NCI-H1755
Summary of the method: as §1

H3255 = test system: H3255
Summary of the method: as §1

NCI-H1650 = test system: NCI-H1650
Summary of the method: as §1

NCI-H650 = test system: NCI-H650
Summary of the method: as §1

NCI-H358 = test system: NCI-H358
Summary of the method: as §1

NCI-H596 = test system: NCI-H596
Summary of the method: as §1

ChaGo-K-1 = test system: ChaGo-K-1
Summary of the method: as §1

A-427 = test system: A-427
Summary of the method: as §1

NCI-H2228 = test system: NCI-H2228
Summary of the method: as §1

SMILES: CCCCCCCCCCCC1=C(O)C(=O)C=C(O)C1=O [Embelin] + Cc1cc(Nc2cc(N3CCN(C)CC3)nc(Sc3ccc(NC(=O)C4CC4)cc3)n2)n[nH]1 [Tozasertib] (partner 0.1 µM)
- relative viability (NCI-H520; first compound 0.08 µM): 0.56
- relative viability (NCI-H520; first compound 0.8 µM): 0.459
- relative viability (NCI-H520; first compound 2.53 µM): 0.467
- relative viability (NCI-H520; first compound 8 µM): 0.376
- relative viability (NCI-H3122; first compound 0.08 µM): 0.356
- relative viability (NCI-H3122; first compound 0.8 µM): 0.457
- relative viability (NCI-H3122; first compound 2.53 µM): 0.424
- relative viability (NCI-H3122; first compound 8 µM): 0.417
- relative viability (NCI-H838; first compound 0.08 µM): 0.298
- relative viability (NCI-H838; first compound 0.8 µM): 0.272
- relative viability (NCI-H838; first compound 2.53 µM): 0.282
- relative viability (NCI-H838; first compound 8 µM): 0.295
- relative viability (NCI-H1944; first compound 0.08 µM): 0.262
- relative viability (NCI-H1944; first compound 0.8 µM): 0.261
- relative viability (NCI-H1944; first compound 2.53 µM): 0.262
- relative viability (NCI-H1944; first compound 8 µM): 0.276
- relative viability (SW 900; first compound 0.08 µM): 0.438
- relative viability (SW 900; first compound 0.8 µM): 0.672
- relative viability (SW 900; first compound 2.53 µM): 0.511
- relative viability (SW 900; first compound 8 µM): 0.718
- relative viability (NCI-H1666; first compound 0.08 µM): 0.615
- relative viability (NCI-H1666; first compound 0.8 µM): 0.68
- relative viability (NCI-H1666; first compound 2.53 µM): 0.639
- relative viability (NCI-H1666; first compound 8 µM): 0.615
- relative viability (NCI-H322M; first compound 0.08 µM): 0.526
- relative viability (NCI-H322M; first compound 0.8 µM): 0.52
- relative viability (NCI-H322M; first compound 2.53 µM): 0.521
- relative viability (NCI-H322M; first compound 8 µM): 0.503
- relative viability (NCI-H441; first compound 0.08 µM): 0.588
- relative viability (NCI-H441; first compound 0.8 µM): 0.628
- relative viability (NCI-H441; first compound 2.53 µM): 0.624
- relative viability (NCI-H441; first compound 8 µM): 0.629
- relative viability (NCI-H1355; first compound 0.08 µM): 0.608
- relative viability (NCI-H1355; first compound 0.8 µM): 0.704
- relative viability (NCI-H1355; first compound 2.53 µM): 0.546
- relative viability (NCI-H1355; first compound 8 µM): 0.499
- relative viability (NCI-H2085; first compound 0.08 µM): 0.784
- relative viability (NCI-H2085; first compound 0.8 µM): 0.939
- relative viability (NCI-H2085; first compound 2.53 µM): 0.884
- relative viability (NCI-H2085; first compound 8 µM): 0.859
- relative viability (SW 1573; first compound 0.08 µM): 0.18
- relative viability (SW 1573; first compound 0.8 µM): 0.25
- relative viability (SW 1573; first compound 2.53 µM): 0.167
- relative viability (SW 1573; first compound 8 µM): 0.187
- relative viability (NCI-H460; first compound 0.08 µM): 0.516
- relative viability (NCI-H460; first compound 0.8 µM): 0.493
- relative viability (NCI-H460; first compound 2.53 µM): 0.666
- relative viability (NCI-H460; first compound 8 µM): 0.883
- relative viability (NCI-H2347; first compound 0.08 µM): 0.608
- relative viability (NCI-H2347; first compound 0.8 µM): 0.465
- relative viability (NCI-H2347; first compound 2.53 µM): 0.575
- relative viability (NCI-H2347; first compound 8 µM): 0.612
- relative viability (EKVX; first compound 0.08 µM): 0.387
- relative viability (EKVX; first compound 0.8 µM): 0.381
- relative viability (EKVX; first compound 2.53 µM): 0.412
- relative viability (EKVX; first compound 8 µM): 0.417
- relative viability (NCI-H1734; first compound 0.08 µM): 0.26
- relative viability (NCI-H1734; first compound 0.8 µM): 0.27
- relative viability (NCI-H1734; first compound 2.53 µM): 0.292
- relative viability (NCI-H1734; first compound 8 µM): 0.262
- relative viability (LK-2; first compound 0.08 µM): 0.161
- relative viability (LK-2; first compound 0.8 µM): 0.172
- relative viability (LK-2; first compound 2.53 µM): 0.147
- relative viability (LK-2; first compound 8 µM): 0.177
- relative viability (NCI-H1755; first compound 0.08 µM): 0.666
- relative viability (NCI-H1755; first compound 0.8 µM): 0.647
- relative viability (NCI-H1755; first compound 2.53 µM): 0.605
- relative viability (NCI-H1755; first compound 8 µM): 0.555
- relative viability (H3255; first compound 0.08 µM): 0.716
- relative viability (H3255; first compound 0.8 µM): 0.595
- relative viability (H3255; first compound 2.53 µM): 0.812
- relative viability (H3255; first compound 8 µM): 0.851
- relative viability (NCI-H1650; first compound 0.08 µM): 0.396
- relative viability (NCI-H1650; first compound 0.8 µM): 0.452
- relative viability (NCI-H1650; first compound 2.53 µM): 0.399
- relative viability (NCI-H1650; first compound 8 µM): 0.462
- relative viability (NCI-H650; first compound 0.08 µM): 0.823
- relative viability (NCI-H650; first compound 0.8 µM): 1.04
- relative viability (NCI-H650; first compound 2.53 µM): 0.869
- relative viability (NCI-H650; first compound 8 µM): 0.724
- relative viability (NCI-H358; first compound 0.08 µM): 0.116
- relative viability (NCI-H358; first compound 0.8 µM): 0.0994
- relative viability (NCI-H358; first compound 2.53 µM): 0.108
- relative viability (NCI-H358; first compound 8 µM): 0.106
- relative viability (NCI-H596; first compound 0.08 µM): 0.821
- relative viability (NCI-H596; first compound 0.8 µM): 1.06
- relative viability (NCI-H596; first compound 2.53 µM): 0.952
- relative viability (NCI-H596; first compound 8 µM): 0.939
- relative viability (ChaGo-K-1; first compound 0.08 µM): 0.243
- relative viability (ChaGo-K-1; first compound 0.8 µM): 0.239
- relative viability (ChaGo-K-1; first compound 2.53 µM): 0.212
- relative viability (ChaGo-K-1; first compound 8 µM): 0.243
- relative viability (A-427; first compound 0.08 µM): 0.229
- relative viability (A-427; first compound 0.8 µM): 0.196
- relative viability (A-427; first compound 2.53 µM): 0.188
- relative viability (A-427; first compound 8 µM): 0.243
- relative viability (NCI-H2228; first compound 0.08 µM): 0.269
- relative viability (NCI-H2228; first compound 0.8 µM): 0.247
- relative viability (NCI-H2228; first compound 2.53 µM): 0.309
- relative viability (NCI-H2228; first compound 8 µM): 0.238
